# Results reported in patent publication US12357669B1, “Modification of natural compounds to create products with enhanced health benefits” (priority 2024, dated 2025).
# Test system: patient with continuously active ulcerative colitis (UC)
# Assay: observations in a patient with continuously active ulcerative colitis (UC)
# Type: in vivo, human
# Conditions: components without prior formation of the chelate/complex
# Text: Many patients with ulcerative colitis have remitting/recurring disease activity which occurs spontaneously at random times. Other factors, such as changes in diet, stress, intercurrent use of medications either to control symptoms of UC or used to treat other conditions, such as antibiotics non steroidal pain medications and steroids, may make inflammation and symptoms worse or better depending on their particular properties.
# Some patients with UC have unremitting continuously active disease which never goes into remission spontaneously. Such patients make excellent study subjects since the action of compounds designed to reduce disease activity and symptoms can be evaluated without the complicating factor of spontaneous changes in disease severity.
# In the patient studied in this report disease activity was observed over several decades and was continuously active with no spontaneous remissions.
substance,measurement,value
iron,amelioration of the symptoms of ulcerative colitis,not seen
